Results as given in patent US4880809A, “1,4-disubstituted piperazines (or homopiperazines) as platelet-activating factor antagonists” (Takeda Chemical Industries, Ltd., priority 1987, dated 1989).
Where a name gives a salt, the structure may show the parent alone.

Tests used:
[1] = system: PAF-Induced Platelet Aggregation; assay: Inhibitory Action on PAF-Induced Platelet Aggregation; assay type: cell-based, New Zealand white male rabbits; details: Oryctolagus cuniculus, Drug Concentration: 3 × 10^-5 M, rabbit PRP
Protocol: Blood was collected from the hearts of conscious New Zealand white male rabbits weighing 2 to 3 kg using citric acid as an anticoagulant (one volume part of 3.15% citric acid per 9 volume parts of the whole blood). The blood was subjected to a centrifuge at 800 rpm for ten minutes to obtain platelet rich plasma (PRP). The remaining blood after collecting the PRP was subjected to a centrifuge at 3000 rpm for ten minutes to obtain platelet poor plasma (PPP). PRP was diluted with PPP, and the number of platelets was adjusted to 500,000/μl. Platelet aggregation was examined by means of turbidimetry [Born, Nature, 194, 927-929 (1962)] with 8 channel aggregometer (NBS HEMA TRACER 6 Nikoh, Bioscience, Japan). More concretely, PRP (250 μl) was kept warm (37° C.) for three minutes in a silicon-processed cuvette, to which was added a test sample (25 μl) dissolved in a physiological saline or in 10mM dimethylsulfoxide followed by dilution with a physiological saline. Two minutes later, PAF (25 μl, 3×10^-9 -1×10^-8 M), dissolved in a physiological saline, was added and then the maximum aggregation rate was determined. As the control, physiological saline without test sample was added to the cuvette, and the inhibitory rate thereon was determined.

[2] = system: PAF-Induced Hypotension; assay: Inhibitory Action on PAF-Induced Hypotension; assay type: in vivo, SD (Jcl) male rats; details: po, 30 mg/kg p.o., rat
Protocol: SD (Jcl) male rats of 6 to 8 week old were subjected to the experiment. After fasting overnight, the rats were cannulated into the femoral artery and vein under anesthesia with pentobarbital. A transducer (MPU-0.5-290O-III, TOYO BALDWIN, Japan) was connected with the artery cannula, and blood pressure was continuously measured. […] The rate of inhibition of lowering of blood pressure after administration of the test samples against the control was evaluated.

| SMILES | inhibition at 30 µM [1] | inhibition in vivo at 30 mg/kg ([2]; after 1 hr) | inhibition in vivo at 30 mg/kg ([2]; after 2 hrs) | inhibition in vivo at 30 mg/kg ([2]; after 4 hrs) |
| --- | --- | --- | --- | --- |
| CCCOc1cc2c(cc1OCCC)CCC(C(=O)N1CCN(C(=O)c3cc(OC)c(OC)c(OC)c3)CC1)=C2 [Example 66, 1-(6,7-dipropoxy-1,2-dihydro-3-naphthoyl)-4-(3,4,5-trimethoxybenzoyl)piperazine] | 100% | 77% | 79% | 68% |
| CCOc1cc2c(cc1OCC)CCC(C(=O)N1CCN(Cc3cc(OC)c(OC)c(OC)c3)CC1)=C2 [Example 58, 1-(6,7-diethoxy-1,2-dihydro-3-naphthoyl)-4-(3,4,5-trimethoxybenzyl)piperazine hydrochloride] | 100% | 88% | 95% | 65% |
| COc1cc2c(cc1OC)CCC(C(=O)N1CCN(C(=O)c3cc(OC)c(OC)c(OC)c3)CC1)=C2 [Example 56, 1-(6,7-dimethoxy-1,2-dihydro-3-naphthoyl)-4-(3,4,5-trimethoxybenzoyl)piperazine] | 100% | 100% | 97% | 88% |
| CCOc1cc2c(cc1OCC)CCCC(C(=O)N1CCN(Cc3cc(OC)c(OC)c(OC)c3)CC1)=C2 [Example 72, 1-(2,3-diethoxy-6,7-dihydro-5H-benzocyclohepten-8-ylcarbonyl)-4-(3,4,5-trimethoxybenzyl)piperazine hydrochloride] | 100% | 98% | 99% | 75% |
| COc1cc2c(cc1OC)CCCC(C(=O)N1CCN(Cc3cc(OC)c(OC)c(OC)c3)CC1)=C2 [Example 49, 1-(2,3-dimethoxy-6,7-dihydro-5H-benzocyclohepten-8-ylcarbonyl)-4-(3,4,5-trimethoxybenzyl)piperazine hydrochloride] | 100% | 94% | 97% | 88% |
| COc1cc2c(cc1OC)CCC(C(=O)N1CCN(Cc3cc(OC)c(OC)c(OC)c3)CC1)=C2 [Example 5, 1-(6,7-dimethoxy-1,2-dihydro-3-naphthoyl)-4-(3,4,5-trimethoxybenzyl)piperazine hydrochloride] | 100% | 77% | 75% | 49% |
